Inconclusive results and toxic doses are left out. No stated cut-off is given here; in the data, active means T/C of 150% or more; inactive means T/C below 125%.
System: L1210 leukemia ip in BDF1 mice, survival T/C
Assay: NCI In Vivo Anticancer Drug Screen. Data for tumor model L1210 Leukemia (intraperitoneal) in B6D2F1 (BDF1) mice
Conditions: endpoint: mean survival time, higher = longer survival
Outline: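 Survival endpoint. Drug-treated group vs vehicle group, expressed as T divided by C. Tumor passaged by transplantation.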

[1] = dose: 100.0 mg/kg/injection, schedule: Q04DX003 (ip), vehicle: Klucel (hydroxypropylcellulose) (HPC)
[2] = dose: 200.0 mg/kg/injection, schedule: Q04DX003 (ip), vehicle: Klucel (hydroxypropylcellulose) (HPC)
[3] = dose: 400.0 mg/kg/injection, schedule: Q04DX003 (ip), vehicle: Klucel (hydroxypropylcellulose) (HPC)
[4] = dose: 50.0 mg/kg/injection, schedule: Q04DX002 (ip), vehicle: Klucel (hydroxypropylcellulose) (HPC)
[5] = dose: 100.0 mg/kg/injection, schedule: Q04DX002 (ip), vehicle: Klucel (hydroxypropylcellulose) (HPC)
[6] = dose: 50.0 mg/kg/injection, schedule: Q01DX001 (ip), vehicle: saline
[7] = dose: 100.0 mg/kg/injection, schedule: Q01DX001 (ip), vehicle: saline
[8] = dose: 200.0 mg/kg/injection, schedule: Q01DX001 (ip), vehicle: saline
[9] = dose: 400.0 mg/kg/injection, schedule: Q01DX001 (ip), vehicle: saline
[10] = dose: 50.0 mg/kg/injection, schedule: Q01DX001 (ip), vehicle: carboxymethylcellulose (CMC)
[11] = dose: 100.0 mg/kg/injection, schedule: Q01DX001 (ip), vehicle: carboxymethylcellulose (CMC)
[12] = dose: 200.0 mg/kg/injection, schedule: Q01DX001 (ip), vehicle: carboxymethylcellulose (CMC)
[13] = dose: 400.0 mg/kg/injection, schedule: Q01DX001 (ip), vehicle: carboxymethylcellulose (CMC)
[14] = dose: 50.0 mg/kg/injection, schedule: Q01DX009 (ip), vehicle: Klucel (hydroxypropylcellulose) (HPC)
[15] = dose: 100.0 mg/kg/injection, schedule: Q01DX009 (ip), vehicle: Klucel (hydroxypropylcellulose) (HPC)
[16] = dose: 100.0 mg/kg/injection, schedule: Q01DX009 (ip), vehicle: saline with Tween-80
[17] = dose: 100.0 mg/kg/injection, schedule: Q04DX003 (ip), vehicle: saline with Tween-80
[18] = dose: 200.0 mg/kg/injection, schedule: Q01DX009 (ip), vehicle: saline with Tween-80
[19] = dose: 400.0 mg/kg/injection, schedule: Q01DX009 (ip), vehicle: saline with Tween-80
[20] = dose: 400.0 mg/kg/injection, schedule: Q04DX003 (ip), vehicle: saline with Tween-80
[21] = dose: 200.0 mg/kg/injection, schedule: Q04DX002 (ip), vehicle: Klucel (hydroxypropylcellulose) (HPC)
[22] = dose: 400.0 mg/kg/injection, schedule: Q04DX002 (ip), vehicle: Klucel (hydroxypropylcellulose) (HPC)
[23] = dose: 100.0 mg/kg/injection, schedule: Q04DX002 (ip), vehicle: saline
[24] = dose: 200.0 mg/kg/injection, schedule: Q04DX003 (ip), vehicle: saline with Tween-80

Measured: T/C

CC(C)C(C)(O)C#N (stereo not drawn)
inactive: dose: 5.0 mg/kg/injection, schedule: Q01DX001 (ip), vehicle: saline 92 % of control | dose: 10.0 mg/kg/injection, schedule: Q01DX001 (ip), vehicle: saline 97 % of control | dose: 20.0 mg/kg/injection, schedule: Q01DX001 (ip), vehicle: saline 100 % of control

c1ccc(Cc2cncc(Cc3ccccc3)n2)cc1
inactive: [1] 101 % of control | [2] 97 % of control | [3] 98 % of control

CCOC(=S)SCC(=O)CSC(=S)OCC
inactive: dose: 25.0 mg/kg/injection, schedule: Q04DX002 (ip), vehicle: Klucel (hydroxypropylcellulose) (HPC) 103 % of control | [4] 97 % of control | [5] 110 % of control

NC(N)=N/N=C/c1ccc(O)c(S(=O)(=O)O)c1
inactive: dose: 15.0 mg/kg/injection, schedule: Q01DX Z (ip), vehicle: saline 97 % of control | dose: 30.0 mg/kg/injection, schedule: Q01DX Z (ip), vehicle: saline 90 % of control | dose: 60.0 mg/kg/injection, schedule: Q01DX Z (ip), vehicle: saline 87 % of control | dose: 60.0 mg/kg/injection, schedule: Q01DX Z (oral), vehicle: saline 97 % of control | dose: 120.0 mg/kg/injection, schedule: Q01DX Z (ip), vehicle: saline 90 % of control | dose: 120.0 mg/kg/injection, schedule: Q01DX Z (oral), vehicle: saline 104 % of control | dose: 240.0 mg/kg/injection, schedule: Q01DX Z (oral), vehicle: saline 95 % of control | dose: 480.0 mg/kg/injection, schedule: Q01DX Z (ip), vehicle: saline 90 % of control | dose: 480.0 mg/kg/injection, schedule: Q01DX Z (oral), vehicle: saline 95 % of control

COc1nc(OC)n(C)c(=O)c1OP(=O)(OC)OC
inactive: [6] 98 % of control | [7] 93 % of control | [8] 93 % of control | [9] 95 % of control

COc1cc(Cl)c(/C=C2\N=C(c3ccccc3)OC2=O)cc1OC
inactive: [6] 94 % of control | [7] 91 % of control | [8] 97 % of control | [9] 94 % of control

CCCCOC(=O)CCl
inactive: dose: 100.0 mg/kg/injection, schedule: Q04DX002 (ip), vehicle: saline with Tween-80 100 % of control | dose: 200.0 mg/kg/injection, schedule: Q04DX002 (ip), vehicle: saline with Tween-80 107 % of control

NC(=S)N/N=C\c1ccccc1/C=N/NC(N)=S
inactive: [10] 109 % of control | [11] 98 % of control | [12] 98 % of control | [13] 98 % of control

CC(CC(CCC(CC(C)CC(C)(C)C)N(C)C)N(C)C)CC(C)(C)C (stereo not drawn)
inactive: [14] 90 % of control | [4] 93 % of control | [15] 96 % of control | [5] 87 % of control | dose: 200.0 mg/kg/injection, schedule: Q01DX009 (ip), vehicle: Klucel (hydroxypropylcellulose) (HPC) 101 % of control

COc1cc(Br)c2c(c1OC)C1(CC[N+](C)(C)C)CC(=O)CCC1CC2 (stereo not drawn)
inactive: dose: 12.5 mg/kg/injection, schedule: Q01DX001 (ip), vehicle: saline 97 % of control | dose: 25.0 mg/kg/injection, schedule: Q01DX001 (ip), vehicle: saline 97 % of control | [6] 94 % of control | [7] 97 % of control

O=C(COC1CCCCC1)OC1CCCCC1
inactive: [16] 95 % of control | [17] 98 % of control | [18] 96 % of control | [19] 94 % of control | [20] 86 % of control

Cc1ccc(C(=O)Cc2ccccc2)cc1
inactive: [5] 94 % of control | [21] 98 % of control | [22] 110 % of control

CN(Cc1ccccc1)N=Nc1ccccc1
inactive: [4] 103 % of control | [5] 95 % of control | [21] 116 % of control

Nc1nc2nc[nH]c2c(Cl)c1Br
inactive: [5] 104 % of control | [21] 115 % of control

CC(=O)c1cccc(C#N)c1
inactive: [16] 100 % of control | [18] 97 % of control | [19] 105 % of control

O=S1CCCO1 (stereo not drawn)
inactive: dose: 4.7 mg/kg/injection, schedule: Q01DX009 (ip), vehicle: saline 100 % of control | dose: 9.4 mg/kg/injection, schedule: Q01DX009 (ip), vehicle: saline 96 % of control | dose: 18.8 mg/kg/injection, schedule: Q01DX009 (ip), vehicle: saline 93 % of control | dose: 75.0 mg/kg/injection, schedule: Q01DX001 (ip), vehicle: saline 98 % of control

CCCCN1CCCC(OC(=O)N(C)C)C1 (stereo not drawn)
inactive: dose: 25.0 mg/kg/injection, schedule: Q04DX002 (ip), vehicle: saline 105 % of control | dose: 50.0 mg/kg/injection, schedule: Q04DX002 (ip), vehicle: saline 102 % of control | [23] 97 % of control

O=C(O)C(Br)C(Br)C(=O)Nc1cccc(C(F)(F)F)c1 (stereo not drawn)
inactive: dose: 25.0 mg/kg/injection, schedule: Q01DX009 (ip), vehicle: Klucel (hydroxypropylcellulose) (HPC) 96 % of control | [14] 96 % of control | [15] 103 % of control | dose: 100.0 mg/kg/injection, schedule: Q01DX009 (ip), vehicle: other 96 % of control

C=CCc1cc2c(cc(OC)c1=O)C(NC(C)=O)CCc1cc(OC)c(OC)c(OC)c1-2 (stereo not drawn)
inactive: [11] 106 % of control | [12] 109 % of control | [13] 114 % of control

CSc1ccccc1NC(=O)c1cccc([N+](=O)[O-])c1
inactive: [5] 105 % of control | [21] 99 % of control | [22] 86 % of control

O=C(Nc1ccc(Cl)cc1C(F)(F)F)OCCOc1ccc([N+](=O)[O-])cc1
inactive: [16] 91 % of control | [18] 94 % of control | [19] 95 % of control

COc1ccc(C(=O)OC(=O)c2ccc(OC)cc2)cc1
inactive: [10] 110 % of control | [11] 104 % of control | [16] 113 % of control | [17] 102 % of control | [12] 108 % of control | [18] 116 % of control | [24] 102 % of control | [13] 112 % of control | [19] 110 % of control | [20] 101 % of control

Nc1cccc2c1-c1ccccc1/C2=N\O
inactive: [11] 97 % of control | [12] 105 % of control | [13] 103 % of control

Cc1ccc(N=Cc2cc(Cl)cc(Cl)c2O)cc1.Cc1ccc(N=Cc2cc(Cl)cc(Cl)c2O)cc1.[Co]
inactive: [17] 104 % of control | [24] 100 % of control | [20] 114 % of control

CCCCCCCCCCCCOc1ccc(Br)cc1
inactive: [17] 98 % of control | [24] 92 % of control | [20] 96 % of control

CCCCC(CC)NC(=O)c1cc(OC)c(OC)c(OC)c1 (stereo not drawn)
inactive: dose: 25.0 mg/kg/injection, schedule: Q04DX003 (ip), vehicle: Klucel (hydroxypropylcellulose) (HPC) 106 % of control | dose: 50.0 mg/kg/injection, schedule: Q04DX003 (ip), vehicle: Klucel (hydroxypropylcellulose) (HPC) 102 % of control | [1] 105 % of control | [2] 90 % of control | [3] 110 % of control

Nc1ccc2ncccc2c1N
inactive: [23] 107 % of control | dose: 200.0 mg/kg/injection, schedule: Q04DX002 (ip), vehicle: saline 100 % of control | dose: 400.0 mg/kg/injection, schedule: Q04DX002 (ip), vehicle: saline 87 % of control

NC(=O)C1=C(CCCCl)c2ccccc2C1=O
inactive: dose: 50.0 mg/kg/injection, schedule: Q01DX009 (ip), vehicle: saline with Tween-80 100 % of control

COc1ccc(OC)c(NC(=O)NNC(=O)CNC(=O)Nc2cccc([N+](=O)[O-])c2)c1
inactive: [16] 89 % of control | [18] 91 % of control | [19] 91 % of control

— PubChem BioAssay AID248 (DTP/NCI, 2004)
